target: T1, PRMT5 (Homo sapiens, UniProt O14744); assay: PRMT5 enzymatic activity inhibition assay (radioactive methylation, 3H-SAM to H4R3 peptide); format: biochemical; details: 100 nM compound; read-out: Inhibition Rate% @100 nM
T1 construct: The final concentrations of PRMT5 enzyme: 2.5 nm/L
Description: The PRMT5 enzymatic activity assay was conducted by Chempartner Life science. The final concentrations of PRMT5 enzyme: 2.5 nm/L; ^3H-SAM: 0.3 μM/L; histone peptide (H4R3S1ac): 0.3 μM/L. The protocol of radioactive methylation assay was as follows: (1) Prepare 1× assay buffer (modified Tris Buffer). (2) Transfer compounds to assay plate using Echo in 100% DMSO. DMSO’s final fraction is 1%. (3) Prepare enzyme and ^3H-SAM Mix solution in 1× assay buffer. (4) Prepare substrate (peptide sequence Ac-[…]-K(Biotin)) solution in 1× assay buffer. (5) Transfer 15 μL of enzyme and ^3H-SAM solution to assay plate. (6) Incubate at room temperature for 60 min. (7) Add 10 μL of substrate solution to each well to start the reaction, and for low control transfer 10 μL of 1× assay buffer. (8) Incubate at room temperature for 120 min. (9) Add cold SAM in 1× assay buffer to make the stop mix. (10) Stop reaction with addition of 5 µL per well of stop solution. (11) Transfer 25 µL of volume per well to Flash plate from assay plate. (12) Incubate for 1 h minimum at room temperature.
(13) Read plate on Micro beta. (14) Data process—get the data in Excel to obtain inhibition values using Equation (1).Inhibitory rate% = (Max-Signal)/ (Max-Min) × 100(1)
Fit the data in XL-Fit to obtain IC50 values using Equation (2): Y = Bottom + (Top-Bottom)/(1 + (IC50/X) […]) Y is% inhibition and X is compound concentration(2)

T1 sequence (O14744 whole entry): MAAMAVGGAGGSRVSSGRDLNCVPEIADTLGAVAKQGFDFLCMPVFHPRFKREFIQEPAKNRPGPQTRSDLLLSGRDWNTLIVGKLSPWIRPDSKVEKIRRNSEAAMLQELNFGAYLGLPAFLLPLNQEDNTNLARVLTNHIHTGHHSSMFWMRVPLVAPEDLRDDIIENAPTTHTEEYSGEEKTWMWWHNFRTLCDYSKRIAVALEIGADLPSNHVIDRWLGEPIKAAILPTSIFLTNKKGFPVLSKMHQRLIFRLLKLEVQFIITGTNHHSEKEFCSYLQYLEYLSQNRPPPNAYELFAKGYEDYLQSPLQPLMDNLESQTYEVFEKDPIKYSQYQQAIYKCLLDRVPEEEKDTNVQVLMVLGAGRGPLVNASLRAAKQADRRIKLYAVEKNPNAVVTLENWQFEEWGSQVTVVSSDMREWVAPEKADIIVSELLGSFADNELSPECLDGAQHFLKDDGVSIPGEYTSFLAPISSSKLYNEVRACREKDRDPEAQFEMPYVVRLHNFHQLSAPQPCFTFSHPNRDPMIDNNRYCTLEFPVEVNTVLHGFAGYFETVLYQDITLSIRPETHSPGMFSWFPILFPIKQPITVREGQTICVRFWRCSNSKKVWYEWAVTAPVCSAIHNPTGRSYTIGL
T1 sequence (Q9BQA1 whole entry partner): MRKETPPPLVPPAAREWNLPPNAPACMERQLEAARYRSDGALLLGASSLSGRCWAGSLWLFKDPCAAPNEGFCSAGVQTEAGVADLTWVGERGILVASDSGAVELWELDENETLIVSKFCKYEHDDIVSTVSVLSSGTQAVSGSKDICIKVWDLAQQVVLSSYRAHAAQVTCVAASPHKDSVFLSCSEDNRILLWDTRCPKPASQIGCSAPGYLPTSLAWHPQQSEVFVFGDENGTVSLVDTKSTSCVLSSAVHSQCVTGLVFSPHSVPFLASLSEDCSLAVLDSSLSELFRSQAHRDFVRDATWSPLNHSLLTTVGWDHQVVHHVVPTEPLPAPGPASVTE

| inhibition at 0.1 µM [%] | SMILES |
| --- | --- |
| 59 ± 0.4 | Cc1ccc2[nH]c3ccc(C(=O)NC[C@H](O)CN4CCc5ccccc5C4)cc3c2c1 [Compound 2, (S)-N-(3-(3,4-dihydroisoquinolin-2(1H)-yl)-2-hydroxypropyl)-6-methyl-9H-carbazole-3-carboxamide] |
| 65 ± 0.2 | O=C(NC[C@H](O)CN1CCc2ccccc2C1)c1ccc2[nH]c3ccc(F)cc3c2c1 [Compound 3, (S)-N-(3-(3,4-dihydroisoquinolin-2(1H)-yl)-2-hydroxypropyl)-6-fluoro-9H-carbazole-3-carboxamide] |
| 64 ± 1.5 | COc1ccc2[nH]c3ccc(C(=O)NC[C@H](O)CN4CCc5ccccc5C4)cc3c2c1 [Compound 4, (S)-N-(3-(3,4-dihydroisoquinolin-2(1H)-yl)-2-hydroxypropyl)-6-methoxy-9H-carbazole-3-carboxamide] |
| 69 ± 7 | O=C(NC[C@H](O)CN1CCc2ccccc2C1)c1ccc2[nH]c3ccc(Cl)cc3c2c1 [Compound 5, (S)-6-chloro-N-(3-(3,4-dihydroisoquinolin-2(1H)-yl)-2-hydroxypropyl)-9H-carbazole-3-carboxamide] |
| 63 ± 3.2 | Cn1c2ccccc2c2cc(C(=O)NC[C@H](O)CN3CCc4ccccc4C3)ccc21 [Compound 6, (S)-N-(3-(3,4-dihydroisoquinolin-2(1H)-yl)-2-hydroxypropyl)-9-methyl-9H-carbazole-3-carboxamide] |
| 74 ± 2 | O=C(NC[C@H](O)CN1CCc2ccccc2C1)c1ccc2[nH]c3c(c2c1)CCC3 [Compound 8, (S)-N-(3-(3,4-dihydroisoquinolin-2(1H)-yl)-2-hydroxypropyl)-1,2,3,4-tetrahydrocyclopenta[b]indole-7-carboxamide] |
| 73 ± 4.1 | O=C(NC[C@H](O)CN1CCc2ccccc2C1)c1ccc2[nH]c3c(c2c1)CCCCC3 [Compound 9, (S)-N-(3-(3,4-dihydroisoquinolin-2(1H)-yl)-2-hydroxypropyl)-5,6,7,8,9,10-hexahydrocyclohepta[b]indole-2-carboxamide] |
| 67 ± 3.5 | CC1CCc2[nH]c3ccc(C(=O)NC[C@H](O)CN4CCc5ccccc5C4)cc3c2C1 (stereo partly drawn) [Compound 11, N-((S)-3-(3,4-dihydroisoquinolin-2(1H)-yl)-2-hydroxypropyl)-3-methyl-2,3,4,9-tetrahydro-1H-carbazole-6-carboxamide] |
| 58 ± 3.7 | CCC1CCc2[nH]c3ccc(C(=O)NC[C@H](O)CN4CCc5ccccc5C4)cc3c2C1 (stereo partly drawn) [Compound 12, N-((S)-3-(3,4-dihydroisoquinolin-2(1H)-yl)-2-hydroxypropyl)-3-ethyl-2,3,4,9-tetrahydro-1H-carbazole-6-carboxamide] |
| 70 ± 0.2 | CC(C)n1c2c(c3cc(C(=O)NC[C@H](O)CN4CCc5ccccc5C4)ccc31)CCCC2 [Compound 16, (S)-N-(3-(3,4-dihydroisoquinolin-2(1H)-yl)-2-hydroxypropyl)-9-isopropyl-2,3,4,9-tetrahydro-1H-carbazole-6-carboxamide] |
| 75 ± 1.6 | CC(C)Cn1c2c(c3cc(C(=O)NC[C@H](O)CN4CCc5ccccc5C4)ccc31)CCCC2 [Compound 17, (S)-N-(3-(3,4-dihydroisoquinolin-2(1H)-yl)-2-hydroxypropyl)-9-isobutyl-2,3,4,9-tetrahydro-1H-carbazole-6-carboxamide] |
| 60 ± 4.6 | O=C(NC[C@H](O)CN1CCc2ccccc2C1)c1ccc2c(c1)c1c(n2CC2CC2)CCCC1 [Compound 18, (S)-9-(cyclopropylmethyl)-N-(3-(3,4-dihydroisoquinolin-2(1H)-yl)-2-hydroxypropyl)-2,3,4,9-tetrahydro-1H-carbazole-6-carboxamide] |
| 48 ± 1.2 | CN1CCc2[nH]c3ccc(C(=O)NC[C@H](O)CN4CCc5ccccc5C4)cc3c2C1 [Compound 21, (S)-N-(3-(3,4-dihydroisoquinolin-2(1H)-yl)-2-hydroxypropyl)-2-methyl-2,3,4,5-tetrahydro-1H-pyrido[4,3-b]indole-8-carboxamide] |
| 64 ± 10.7 | CCN1CCc2[nH]c3ccc(C(=O)NC[C@H](O)CN4CCc5ccccc5C4)cc3c2C1 [Compound 22, (S)-N-(3-(3,4-dihydroisoquinolin-2(1H)-yl)-2-hydroxypropyl)-2-ethyl-2,3,4,5-tetrahydro-1H-pyrido[4,3-b]indole-8-carboxamide] |
| 52 ± 4.8 | O=C(NC[C@H](O)CN1CCc2ccccc2C1)c1ccc2[nH]c3c(c2c1)CN(C1CC1)CC3 [Compound 23, (S)-2-cyclopropyl-N-(3-(3,4-dihydroisoquinolin-2(1H)-yl)-2-hydroxypropyl)-2,3,4,5-tetrahydro-1H-pyrido[4,3-b]indole-8-carboxamide] |
| 63 ± 4.4 | CCCN1CCc2[nH]c3ccc(C(=O)NC[C@H](O)CN4CCc5ccccc5C4)cc3c2C1 [Compound 24, (S)-N-(3-(3,4-dihydroisoquinolin-2(1H)-yl)-2-hydroxypropyl)-2-propyl-2,3,4,5-tetrahydro-1H-pyrido[4,3-b]indole-8-carboxamide] |
| 51 ± 4.2 | CC(C)N1CCc2[nH]c3ccc(C(=O)NC[C@H](O)CN4CCc5ccccc5C4)cc3c2C1 [Compound 25, (S)-N-(3-(3,4-dihydroisoquinolin-2(1H)-yl)-2-hydroxypropyl)-2-isopropyl-2,3,4,5-tetrahydro-1H-pyrido[4,3-b]indole-8-carboxamide] |
| 59 ± 1.4 | CC(C)CN1CCc2[nH]c3ccc(C(=O)NC[C@H](O)CN4CCc5ccccc5C4)cc3c2C1 [Compound 26, (S)-N-(3-(3,4-dihydroisoquinolin-2(1H)-yl)-2-hydroxypropyl)-2-isobutyl-2,3,4,5-tetrahydro-1H-pyrido[4,3-b]indole-8-carboxamide] |

Reference: PMC9572541, “Design, Synthesis and Biological Evaluation of Novel and Potent Protein Arginine Methyltransferases 5 Inhibitors for Cancer Therapy” (Molecules, 2022)
